Data published in patent publication US12617779B2, “Self degradation-type CDK9 inhibitor prodrug and liposome encapsulating same” (Sumitomo Pharma Co., Ltd., priority 2021, dated 2026).

Assay: Evaluation of conversion rate to active form in buffer solution (Experimental Example 1)
Format: physicochemical
Details: for Production rate of Alvocidib / Residual rate: 37° C., 25 umol/L in buffer solution; for Stability in buffer solution at pH 5: pH 5, 37° C., up to 2 or 3 hours; for Conversion to Alvocidib at pH 7.4: pH 7.4, 37° C., up to 3 hours
How it was run: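 Compounds at 25 umol/L were held at 37 °C in 50 mM citrate (pH 5.0, 5.5) or phosphate (pH 6.0–7.4) buffers. Remaining compound and Alvocidib formed were quantified by HPLC at 0, 0.5, 1, 2 and 3 h.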

CCN(C[C@H]1CCCCN1)C(=O)Oc1cc(O)c2c(=O)cc(-c3ccccc3Cl)oc2c1[C@H]1CCN(C)C[C@H]1O [Example 2, 2-(2-chlorophenyl)-5-hydroxy-8-[(3S,4R)-3-hydroxy-1-methylpiperidin-4-yl]-4-oxo-4H-1-benzopyran-7-yl ethyl{[(2R)-piperidin-2-yl]methyl}carbamate]
Production rate of Alvocidib (pH5.0, 0 hr): 0.0%
Residual rate (pH5.0, 0 hr): 95.5%
Stability in buffer solution at pH 5: stable
Production rate of Alvocidib (pH5.0, 0.5 hr): 0.3%
Residual rate (pH5.0, 0.5 hr): 95.4%
Production rate of Alvocidib (pH5.0, 1 hr): 0.5%
Residual rate (pH5.0, 1 hr): 95.1%
Production rate of Alvocidib (pH5.0, 2 hr): 1.1%
Residual rate (pH5.0, 2 hr): 94.7%
Production rate of Alvocidib (pH5.0, 3 hr): 1.6%
Residual rate (pH5.0, 3 hr): 94.1%
Production rate of Alvocidib (pH5.5, 0 hr): 0.0%
Residual rate (pH5.5, 0 hr): 95.8%
Production rate of Alvocidib (pH5.5, 0.5 hr): 0.8%
Residual rate (pH5.5, 0.5 hr): 95.1%
Production rate of Alvocidib (pH5.5, 1 hr): 1.7%
Residual rate (pH5.5, 1 hr): 94.3%
Production rate of Alvocidib (pH5.5, 2 hr): 3.2%
Residual rate (pH5.5, 2 hr): 92.5%
Production rate of Alvocidib (pH5.5, 3 hr): 5.3%
Residual rate (pH5.5, 3 hr): 90.4%
Production rate of Alvocidib (pH6.0, 0 hr): 0.0%
Residual rate (pH6.0, 0 hr): 95.5%
Production rate of Alvocidib (pH6.0, 0.5 hr): 2.9%
Residual rate (pH6.0, 0.5 hr): 93.0%
Production rate of Alvocidib (pH6.0, 1 hr): 5.7%
Residual rate (pH6.0, 1 hr): 89.6%
Production rate of Alvocidib (pH6.0, 2 hr): 11.1%
Residual rate (pH6.0, 2 hr): 81.0%
Production rate of Alvocidib (pH6.0, 3 hr): 15.7%
Residual rate (pH6.0, 3 hr): 74.5%
Production rate of Alvocidib (pH6.5, 0 hr): 0.0%
Residual rate (pH6.5, 0 hr): 95.9%
Production rate of Alvocidib (pH6.5, 0.5 hr): 7.9%
Residual rate (pH6.5, 0.5 hr): 87.4%
Production rate of Alvocidib (pH6.5, 1 hr): 15.1%
Residual rate (pH6.5, 1 hr): 75.4%
Production rate of Alvocidib (pH6.5, 2 hr): 27.2%
Residual rate (pH6.5, 2 hr): 57.4%
Production rate of Alvocidib (pH6.5, 3 hr): 36.1%
Residual rate (pH6.5, 3 hr): 45.1%
Production rate of Alvocidib (pH7.0, 0 hr): 0.0%
Residual rate (pH7.0, 0 hr): 95.4%
Production rate of Alvocidib (pH7.0, 0.5 hr): 21.0%
Residual rate (pH7.0, 0.5 hr): 66.7%
Production rate of Alvocidib (pH7.0, 1 hr): 38.0%
Residual rate (pH7.0, 1 hr): 44.8%
Production rate of Alvocidib (pH7.0, 2 hr): 53.4%
Residual rate (pH7.0, 2 hr): 19.9%
Production rate of Alvocidib (pH7.0, 3 hr): 60.8%
Residual rate (pH7.0, 3 hr): 9.8%
Production rate of Alvocidib (pH7.4, 0 hr): 0.2%
Residual rate (pH7.4, 0 hr): 95.4%
Conversion to Alvocidib at pH 7.4: rapidly converted to Alvocidib
Production rate of Alvocidib (pH7.4, 0.5 hr): 38.7%
Residual rate (pH7.4, 0.5 hr): 41.7%
Production rate of Alvocidib (pH7.4, 1 hr): 56.4%
Residual rate (pH7.4, 1 hr): 17.1%
Production rate of Alvocidib (pH7.4, 2 hr): 66.0%
Residual rate (pH7.4, 2 hr): 3.5%
Production rate of Alvocidib (pH7.4, 3 hr): 67.6%
Residual rate (pH7.4, 3 hr): 1.5%

CN1CC[C@H](c2c(OC(=O)N(C)C[C@@H]3CCCCN3)cc(O)c3c(=O)cc(-c4ccccc4Cl)oc23)[C@H](O)C1 [Example 3, 2-(2-chlorophenyl)-5-hydroxy-8-[(3S,4R)-3-hydroxy-1-methylpiperidin-4-yl]-4-oxo-4H-1-benzopyran-7-yl methyl{[(2S)-piperidin-2-yl]methyl}carbamate]
Production rate of Alvocidib (pH5.0, 0 hr): 0.2%
Residual rate (pH5.0, 0 hr): 99.8%
Stability in buffer solution at pH 5: stable
Production rate of Alvocidib (pH5.0, 0.5 hr): 0.9%
Residual rate (pH5.0, 0.5 hr): 99.1%
Production rate of Alvocidib (pH5.0, 1 hr): 1.3%
Residual rate (pH5.0, 1 hr): 98.7%
Production rate of Alvocidib (pH5.0, 2 hr): 2.2%
Residual rate (pH5.0, 2 hr): 97.8%
Production rate of Alvocidib (pH5.0, 3 hr): 3.1%
Residual rate (pH5.0, 3 hr): 96.9%
Production rate of Alvocidib (pH5.5, 0 hr): 0.3%
Residual rate (pH5.5, 0 hr): 99.7%
Production rate of Alvocidib (pH5.5, 0.5 hr): 1.8%
Residual rate (pH5.5, 0.5 hr): 98.2%
Production rate of Alvocidib (pH5.5, 1 hr): 2.7%
Residual rate (pH5.5, 1 hr): 97.3%
Production rate of Alvocidib (pH5.5, 2 hr): 4.7%
Residual rate (pH5.5, 2 hr): 95.3%
Production rate of Alvocidib (pH5.5, 3 hr): 6.5%
Residual rate (pH5.5, 3 hr): 93.5%
Production rate of Alvocidib (pH6.0, 0 hr): 0.3%
Residual rate (pH6.0, 0 hr): 99.7%
Production rate of Alvocidib (pH6.0, 0.5 hr): 4.5%
Residual rate (pH6.0, 0.5 hr): 95.5%
Production rate of Alvocidib (pH6.0, 1 hr): 7.6%
Residual rate (pH6.0, 1 hr): 92.2%
Production rate of Alvocidib (pH6.0, 2 hr): 14.1%
Residual rate (pH6.0, 2 hr): 85.3%
Production rate of Alvocidib (pH6.0, 3 hr): 19.8%
Residual rate (pH6.0, 3 hr): 79.4%
Production rate of Alvocidib (pH6.5, 0 hr): 0.3%
Residual rate (pH6.5, 0 hr): 99.7%
Production rate of Alvocidib (pH6.5, 0.5 hr): 10.6%
Residual rate (pH6.5, 0.5 hr): 88.9%
Production rate of Alvocidib (pH6.5, 1 hr): 18.3%
Residual rate (pH6.5, 1 hr): 80.9%
Production rate of Alvocidib (pH6.5, 2 hr): 33.5%
Residual rate (pH6.5, 2 hr): 65.3%
Production rate of Alvocidib (pH6.5, 3 hr): 44.6%
Residual rate (pH6.5, 3 hr): 53.9%
Production rate of Alvocidib (pH7.0, 0 hr): 0.6%
Residual rate (pH7.0, 0 hr): 99.4%
Production rate of Alvocidib (pH7.0, 0.5 hr): 26.8%
Residual rate (pH7.0, 0.5 hr): 72.2%
Production rate of Alvocidib (pH7.0, 1 hr): 43.2%
Residual rate (pH7.0, 1 hr): 55.3%
Production rate of Alvocidib (pH7.0, 2 hr): 65.2%
Residual rate (pH7.0, 2 hr): 20.2%
Production rate of Alvocidib (pH7.0, 3 hr): 74.5%
Residual rate (pH7.0, 3 hr): 8.0%
Production rate of Alvocidib (pH7.4, 0 hr): 0.9%
Residual rate (pH7.4, 0 hr): 99.1%
Conversion to Alvocidib at pH 7.4: rapidly converted to Alvocidib
Production rate of Alvocidib (pH7.4, 0.5 hr): 49.0%
Residual rate (pH7.4, 0.5 hr): 49.4%
Production rate of Alvocidib (pH7.4, 1 hr): 67.8%
Residual rate (pH7.4, 1 hr): 17.0%
Production rate of Alvocidib (pH7.4, 2 hr): 80.4%
Residual rate (pH7.4, 2 hr): 0.0%
Production rate of Alvocidib (pH7.4, 3 hr): 82.5%
Residual rate (pH7.4, 3 hr): 0.0%
